# Like-named read-outs stand apart in the source and are kept apart here. Where a SMILES comes first, the peptide text is derived from it. The star is where a group is joined. X2 = CCCCN(CCc1c2c(nc3ccccc13)-c1cc3c(c(=O)n1C2)COC(=O)[C@]3(O)CC)*; X4 = CCCN(CCc1c2c(nc3ccccc13)-c1cc3c(c(=O)n1C2)COC(=O)[C@]3(O)CC)*; X5 = CC[C@@]1(O)C(=O)OCc2c1cc1n(c2=O)Cc2c-1nc1ccccc1c2CCN(CC(C)C)*; Propanoyl(3-maleimido) = O=C1C=CC(=O)N1CCC(=O)*; PEG6 = NCCOCCOCCOCCOCCOCCOCCC(=O)O
# Columns and labels:
# [1] = test system: A2780 ovarian cancer tumor model; test: Efficacy in animal model of A2780 ovarian cancer, 30 mg/kg once a week for two weeks (Example 41); assay type: in vivo, BALB/c mice
# Method: Test objective: To further compare the antitumor efficacy of different polypeptide Linkers in an animal tumor model of A2780 ovarian cancer.
# Test drug: Polypeptide conjugate and normal saline control group.
# 8×10^6 corresponding cells were injected into right axillas of nude mice subcutaneously. […] The negative control group was administered normal saline. Administration was performed once a week for two weeks.
# [2] = test system: A549 (non-small cell lung cancer); test: cells; assay type: cell-based; conditions: for IC50 Non-small cell lung cancer tissue (A549): CCK8, 48 h, Table 6
# How it was run: (§1)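 CCK8 absorbance at 450 nm, read after roughly 2 h of staining, gave cell survival rates from which IC50 values were derived. Beforehand, 5,000 cells/well were exposed for 48 h at 37° C to serial drug dilutions (triplicate wells; 0.1% DMSO vehicle control; cell-free blanks).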
# SJSA-1 (sarcoma tissue) = test: cells; assay type: cell-based; conditions: for IC50 Sarcoma tissue (SJSA-1): CCK8, 48 h, Table 6
# How it was run: as §1
# A2780 (ovarian cancer) = test: cells; assay type: cell-based; conditions: for IC50 Ovarian cancer tissue (A2780): CCK8, 48 h, Table 6
# How it was run: as §1
# [3] = test system: SKBR3 (breast cancer tissue); test: cells; assay type: cell-based; conditions: for IC50 Breast cancer tissue (SKBR3): CCK8, 48 h, Table 6
# How it was run: as §1
# [4] = MTD determination in mice (Examples 27, 36, 44); assay type: in vivo; conditions: female, mouse, in vivo, mice, monitored for 14 d; for MTD: read-out: MTD
# Text: Test animals: 6-8 weeks old mice, all female; mice were grouped randomly, with six mice in each group, administered with drugs at different concentration gradients separately and monitored for 14 d. A mouse was euthanized at a loss of 20% of its initial weight and deemed to have died of poisoning.
# [5] = Tumor homogenate activation efficiency, small cell lung cancer tissue (Example 28); assay type: in vitro ADME; conditions: pH 5.0, 37° C., 2 h; Table 5
# How it was run: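 Polypeptide conjugate at 1 mg/ml in 50 mM MES, 250 mM NaCl, pH 5.0 incubated with 100 μg small cell lung cancer tissue homogenate at 37° C. for 2 h. HPLC quantified Belotecan release as Belotecan peak area over total area of Belotecan plus all Belotecan-containing compounds.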
SMILES,A2780 (ovarian cancer) mean tumor volume (mm^3) Day 1 [1] [mm^3],A2780 (ovarian cancer) mean tumor volume (mm^3) Day 4 [1] [mm^3],A2780 (ovarian cancer) mean tumor volume (mm^3) Day 7 [1] [mm^3],A2780 (ovarian cancer) mean tumor volume (mm^3) Day 10 [1] [mm^3],A2780 (ovarian cancer) mean tumor volume (mm^3) Day 14 [1] [mm^3],Growth rate (%) of A2780 (ovarian cancer) on Day 14 [1] [%],Mouse weight (%) on Day 14 [1],IC50 A549 (non-small cell lung cancer) ([2]; 48 h) [µg/mL],IC50 SJSA-1 (sarcoma tissue) (SJSA-1 (sarcoma tissue); 48 h) [µg/mL],IC50 A2780 (ovarian cancer) (A2780 (ovarian cancer); 48 h) [µg/mL],IC50 SKBR3 (breast cancer tissue) ([3]; 48 h) [µg/mL],"MTD ([4]; Table 15 (Example 44), six per group) [mg/kg]",MTD ([4]; Table 4) [mg/kg],Percentage of release efficiency (%) Small cell lung cancer tissue (NCI-H841) [5] [%],IC50 Non-small cell lung cancer tissue (A549) [2] [µg/mL],IC50 Sarcoma tissue (SJSA-1) (SJSA-1 (sarcoma tissue)) [µg/mL],IC50 Ovarian cancer tissue (A2780) (A2780 (ovarian cancer)) [µg/mL],IC50 Breast cancer tissue (SKBR3) [3] [µg/mL],MTD at 14 d ([4]; Table 9) [mg/kg]
CC[C@@]1(O)C(=O)OCC2=C1C=C1c3nc4ccccc4c(CCN(C(=O)OCc4ccc(NC(=O)[C@H](CC(N)=O)NC(=O)[C@H](C)NC(=O)[C@H](C)NC(=O)CCOCCOCCOCCOCCOCCOCCNC(=O)CCN5C(=O)C=CC5=O)cc4)C(C)C)c3CN1C2 [MI-6PEG-AAN-PAB-Belotecan],151.03,282.87,579.35,837.75,1135.00,751.51,+1.2%,0.39,0.26,0.34,0.40,100,100,61.5,,,,,
CCCCN(CCc1c2c(nc3ccccc13)-c1cc3c(c(=O)n1C2)COC(=O)[C@]3(O)CC)C(=O)[C@H](CC(C)C)NC(=O)[C@H](CC(N)=O)NC(=O)[C@H](C)NC(=O)[C@H](C)NC(=O)CCOCCOCCOCCOCCOCCOCCNC(=O)CCN1C(=O)C=CC1=O [MI-6PEG-AANL-D4] ({Propanoyl(3-maleimido)-PEG6}-AANL-X2),133.89,309.51,703.24,894.45,1345.03,1004.58,+14.5%,,,,,,,,3.72,2.94,2.47,3.94,
CC[C@@]1(O)C(=O)OCc2c1cc1n(c2=O)Cc2c-1nc1ccccc1c2CCN(CC(C)C)C(=O)[C@H](CC(C)C)NC(=O)[C@H](CC(N)=O)NC(=O)[C@H](C)NC(=O)[C@H](C)NC(=O)CCOCCOCCOCCOCCOCCOCCNC(=O)CCN1C(=O)C=CC1=O [MI-6PEG-AANL-D5] ({Propanoyl(3-maleimido)-PEG6}-AANL-X5),134.01,254.52,612.55,730.28,1116.71,833.30,+7.9%,,,,,,,,1.34,1.58,1.13,2.20,
CCCN(CCc1c2c(nc3ccccc13)-c1cc3c(c(=O)n1C2)COC(=O)[C@]3(O)CC)C(=O)[C@H](CC(C)C)NC(=O)[C@H](CC(N)=O)NC(=O)[C@H](C)NC(=O)[C@H](C)NC(=O)CCOCCOCCOCCOCCOCCOCCNC(=O)CCN1C(=O)C=CC1=O [MI-6PEG-AANL-D3] ({Propanoyl(3-maleimido)-PEG6}-AANL-X4),134.07,387.76,768.59,998.38,1508.23,1124.96,+12.2%,,,,,,,,1.87,1.52,1.15,2.56,200

# Reference: patent US20250235545A1, “POLYPEPTIDE CONJUGATE AND USE THEREOF” (SHANGHAI CHIXI BIOMEDICAL TECHNOLOGY CO., LTD, priority 2024, published 2025)
